Test results: US4145554A, “3-Nitropyrazole derivatives” (Eli Lilly and Company, priority 1977, dated 1979)
≈ marks a conversion by molar mass, not a printed value. Read-outs that look alike come from different tables or passages of the source.

How the values were obtained:
Escherichia coli = assay: in vitro tube dilution test (MIC); format: cell-based
Excerpt: (§1) Our compound, 1-(2-hydroxyethyl)-3-nitro-4-pyrazolecarboxamide, has been extensively tested in vitro to determine the range of microorganisms against which it is active. The table of data below reports the minimum inhibitory concentration (MIC) at which the compound is effective in controlling a variety of microorganisms in a standard tube dilution test system. The MIC is reported as micrograms of compound per milliliter.
(§2) Other compounds of our invention have also been tested in the tube dilution test and shown to have in vitro activity against a number of microorganisms. The table below reports tests of a number of exemplary compounds against exemplary microorganisms. The compounds are identified by their numbers in the listing above. The data are reported as the MIC in micrograms per milliliter against the named exemplary microorganisms.

Mycoplasma gallisepticum = assay: in vitro tube dilution test (MIC); format: cell-based; conditions: Mycoplasmoides gallisepticum
Excerpt: as §1, §2

Streptococcus sp. 80 = assay: in vitro tube dilution test (MIC); format: cell-based
Excerpt: as §2

Pasteurella multocida = assay: in vitro tube dilution test (MIC); format: cell-based
Excerpt: as §1
(§3) The other preferred compounds of our invention have also been thoroughly tested in the in vitro tube dilution test.
as §2

Streptococcus pyogenes = assay: Tests in mice, Streptococcus pyogenes infection; format: in vivo; conditions: S. pyogenes; for Days Survived: two subcutaneous doses of 83 mg./kg., 1 and 5 hours; for ED50: Streptococcus pyogenes, sc, subcutaneous, 1 and 5 hours post-inoculation
Experimental: (§4) Groups of laboratory mice were inoculatd with E. coli or with Streptococcus pyogenes. The 3-nitropyrazoles were administered in two different modes to the infected mice. In one group of tests, the compound was administered in two subcutaneous doses of 83 mg./kg. each, given 1 and 5 hours after the mice were inoculated with the organism. The mice were observed, and the results reported below as the number of days the treated mice survived the challenge.
(§5) In the other group of tests, the dose of each compound which allowed 50 percent of the treated mice to survive the challenge was determined. Again, the compound was administered in subcutane divided doses, 1 and 5 hours post-inoculation.

Salmonella dublin = assay: in vitro tube dilution test (MIC); format: cell-based; conditions: Salmonella enterica
Excerpt: as §3, §2

[1] = test system: Staphylococcus aureus sp. 1130; assay: in vitro tube dilution test (MIC); format: cell-based
Excerpt: as §3, §2

Vibrio coli 3811 = assay: in vitro tube dilution test (MIC); format: cell-based; conditions: Campylobacter coli
Excerpt: as §3, §2

E. coli = assay: Tests in mice, E. coli infection; format: in vivo; conditions: for Days Survived: two subcutaneous doses of 83 mg./kg., 1 and 5 hours
Experimental: as §4, §5

Salmonella typhimurium = assay: Salmonellosis in chickens, single injection to day-old chicks; format: in vivo; conditions: for chicks protected of the 5-bird treated group: salmonella challenge; for responders at 60 mg/kg: Salmonella enterica, TYPHIMURIUM, 168 h
Experimental: A number of our 3-nitropyrazoles have been tested against an induced infection of Salmonella typhimurium in day-old chicks. The test was conducted by administering a single injection of 60 mg./kg. of the compounds to each of five chicks. The following day, the chicks were challenged by the subcutaneous injection of a dispersion of S. typhimurium organisms sufficient to kill most or all of the untreated control chicks.
Some of the compounds were tested more than once, in which instances the data are reported as the total survivors from the multiple treatment groups. Untreated, challenged control groups of chicks were tested together with each batch of groups of chicks to which test compounds were administered. Since the mortality of the untreated control chicks varied somewhat from one group of tests to another, results of the untreated control groups are reported below with each test.

[2] = Mycoplasma gallisepticum, tube dilution, read-out: MIC
[3] = Streptococcus sp. 80, tube dilution, read-out: MIC
[4] = Salmonella dublin, tube dilution, read-out: MIC
[5] = Staphylococcus aureus sp. 1130, tube dilution, read-out: MIC
[6] = Vibrio coli 3811, tube dilution, read-out: MIC
[7] = single injection of 60 mg./kg., seven days, read-out: Survival (converted)

Compound | MIC (Escherichia coli; tube dilution, read-out: MIC) | MIC (Mycoplasma gallisepticum; [2]) | MIC (Streptococcus sp. 80; [3]) | MIC (Pasteurella multocida; tube dilution, read-out: MIC) | MIC (Salmonella dublin; [4]) | MIC [1, 5] | MIC (Vibrio coli 3811; [6]) | responders at 60 mg/kg (Salmonella typhimurium; [7]) | also measured
CC(C)NC(=O)c1cn(CCO)nc1[N+](=O)[O-] [Compound 88, 1-(2-hydroxyethyl)-N-isopropyl-3-nitro-4-pyrazolecarboxamide] | 50 µg/mL (≈ 206 µM) | 3.12 µg/mL (≈ 12.9 µM) | > 50 µg/mL | 6.25 µg/mL (≈ 25.8 µM) | > 50 µg/mL | > 50 µg/mL | 50 µg/mL (≈ 206 µM) | – | Days Survived (Streptococcus pyogenes): 2.0 days; Days Survived (E. coli): 4.8 days
NC(=O)c1cn(C2C=CC(n3cc(C(N)=O)c([N+](=O)[O-])n3)C=C2)nc1[N+](=O)[O-] (centres unmarked) [Compound 59, 1,1'-(2,5-cyclohexadien-1,4-ylene)-bis(3-nitro-4-pyrazolecarboxamide)] | – | – | – | – | – | – | – | – | MIC (Escherichia coli): 3.12 µg/mL (≈ 8.04 µM); MIC (Mycoplasma gallisepticum): 3.12 µg/mL (≈ 8.04 µM); chicks protected of the 5-bird treated group (Salmonella typhimurium): at least three chicks of the 5-bird treated group; MIC (Streptococcus sp. 80; Streptococcus, SP.80): > 50 µg/mL; MIC (Pasteurella multocida): 3.12 µg/mL (≈ 8.04 µM); MIC (Salmonella dublin): 3.12 µg/mL (≈ 8.04 µM); MIC ([1]; Staphylococcus aureus, SP.1130): 1.56 µg/mL (≈ 4.02 µM); MIC (Vibrio coli 3811; 3811): 12.5 µg/mL (≈ 32.2 µM)
N#Cc1cn(CCCCl)nc1[N+](=O)[O-] [Compound 83, 1-(3-chloropropyl)-3-nitro-4-pyrazolecarbonitrile] | > 50 µg/mL | 50 µg/mL (≈ 233 µM) | > 50 µg/mL | > 50 µg/mL | > 50 µg/mL | > 50 µg/mL | 25 µg/mL (≈ 116 µM) | 80% | –
CCS(=O)(=O)CCn1cc(C(N)=O)c([N+](=O)[O-])n1 [Compound 35, 1-(2-ethylsulfonylethyl)-3-nitro-4-pyrazolecarboxamide] | 50 µg/mL (≈ 181 µM) | > 50 µg/mL | 25 µg/mL (≈ 90.5 µM) | 6.25 µg/mL (≈ 22.6 µM) | 50 µg/mL (≈ 181 µM) | 3.12 µg/mL (≈ 11.3 µM) | 50 µg/mL (≈ 181 µM) | 80% | Days Survived (Streptococcus pyogenes): 7.0 days; ED50 (Streptococcus pyogenes): 36.2 mg/kg; Days Survived (E. coli): 1.0 days
CC(C)n1cc(C(N)=O)c([N+](=O)[O-])n1 [Compound 64, 1-isopropyl-3-nitro-4-pyrazolecarboxamide] | 25 µg/mL (≈ 126 µM) | 50 µg/mL (≈ 252 µM) | > 50 µg/mL | 50 µg/mL (≈ 252 µM) | 12.5 µg/mL (≈ 63.1 µM) | 50 µg/mL (≈ 252 µM) | > 50 µg/mL | 60% | –
CNC(=O)c1cn(C)nc1[N+](=O)[O-] [Compound 61, N,1-dimethyl-3-nitro-4-pyrazolecarboxamide] | 50 µg/mL (≈ 272 µM) | 12.5 µg/mL (≈ 67.9 µM) | 50 µg/mL (≈ 272 µM) | – | 50 µg/mL (≈ 272 µM) | 50 µg/mL (≈ 272 µM) | – | 70% | Days Survived (Streptococcus pyogenes): 1.0 days; ED50 (Streptococcus pyogenes): > 83 mg/kg; ED50 (E. coli; Escherichia coli, sc, subcutaneous, 1 and 5 hours post-inoculation): 68 mg/kg
NC(=O)OCCn1cc(C(N)=O)c([N+](=O)[O-])n1 [Compound 93, [2-(4-carbamoyl-3-nitropyrazol-1-yl)ethyl] carbamate] | 12.5 µg/mL (≈ 51.4 µM) | 12.5 µg/mL (≈ 51.4 µM) | 6.25 µg/mL (≈ 25.7 µM) | < 1.56 µg/mL | 6.25 µg/mL (≈ 25.7 µM) | 3.12 µg/mL (≈ 12.8 µM) | 50 µg/mL (≈ 206 µM) | – | responders at 60 mg/kg (Salmonella typhimurium; read-out: Survival): 100%
NC(=O)c1cn(CCCO)nc1[N+](=O)[O-] [Compound 62, 1-(3-hydroxypropyl)-3-nitro-4-pyrazolecarboxamide] | 6.25 µg/mL (≈ 29.2 µM) | 1.56 µg/mL (≈ 7.28 µM) | 50 µg/mL (≈ 233 µM) | 6.25 µg/mL (≈ 29.2 µM) | 3.12 µg/mL (≈ 14.6 µM) | 50 µg/mL (≈ 233 µM) | 12.5 µg/mL (≈ 58.4 µM) | 70% | –

Continued, in another order:

MIC (Escherichia coli; tube dilution, read-out: MIC) | MIC (Mycoplasma gallisepticum; [2]) | MIC (Streptococcus sp. 80; [3]) | MIC (Pasteurella multocida; tube dilution, read-out: MIC) | MIC (Salmonella dublin; [4]) | MIC [1, 5] | MIC (Vibrio coli 3811; [6]) | Compound | responders at 60 mg/kg (Salmonella typhimurium; [7]) | also measured
3.12 µg/mL (≈ 14.3 µM) | > 50 µg/mL | 50 µg/mL (≈ 229 µM) | 12.5 µg/mL (≈ 57.2 µM) | 3.12 µg/mL (≈ 14.3 µM) | > 1.56 µg/mL | 25 µg/mL (≈ 114 µM) | NC(=O)c1cn(CCCl)nc1[N+](=O)[O-] [Compound 52, 1-(2-chloroethyl)-3-nitro-4-pyrazolecarboxamide] | 80% | –
50 µg/mL (≈ 191 µM) | 50 µg/mL (≈ 191 µM) | 25 µg/mL (≈ 95.3 µM) | 12.5 µg/mL (≈ 47.7 µM) | > 50 µg/mL | 25 µg/mL (≈ 95.3 µM) | > 50 µg/mL | CS(=O)(=O)CCn1cc(C(N)=O)c([N+](=O)[O-])n1 [Compound 66, 1-[2-(methylsulfonyl)ethyl]-3-nitro-4-pyrazolecarboxamide] | 40% | –
12.5 µg/mL (≈ 50.8 µM) | 6.25 µg/mL (≈ 25.4 µM) | 50 µg/mL (≈ 203 µM) | 12.5 µg/mL (≈ 50.8 µM) | 12.5 µg/mL (≈ 50.8 µM) | 6.25 µg/mL (≈ 25.4 µM) | 50 µg/mL (≈ 203 µM) | NC(=O)c1cn(Cc2ccccc2)nc1[N+](=O)[O-] [Compound 18, 1-benzyl-3-nitro-4-pyrazolecarboxamide] | 70% | –
50 µg/mL (≈ 238 µM) | 50 µg/mL (≈ 238 µM) | 50 µg/mL (≈ 238 µM) | 25 µg/mL (≈ 119 µM) | 50 µg/mL (≈ 238 µM) | 50 µg/mL (≈ 238 µM) | 25 µg/mL (≈ 119 µM) | CCOCCn1cc(C#N)c([N+](=O)[O-])n1 [Compound 84, 1-(2-ethoxyethyl)-3-nitro-4-pyrazolecarbonitrile] | 80% | –
12.5 µg/mL (≈ 58.9 µM) | > 50 µg/mL | 50 µg/mL (≈ 236 µM) | > 50 µg/mL | 6.25 µg/mL (≈ 29.5 µM) | 6.25 µg/mL (≈ 29.5 µM) | 6.25 µg/mL (≈ 29.5 µM) | CC(=O)Cn1cc(C(N)=O)c([N+](=O)[O-])n1 [Compound 9, 1-(2-oxopropyl)-3-nitro-4-pyrazolecarboxamide] | 100% | –
> 50 µg/mL | 3.12 µg/mL (≈ 12.2 µM) | > 50 µg/mL | > 50 µg/mL | > 50 µg/mL | > 50 µg/mL | 50 µg/mL (≈ 195 µM) | CCCCNC(=O)c1cn(CCO)nc1[N+](=O)[O-] [Compound 85, N-butyl-1-(2-hydroxyethyl)-3-nitro-4-pyrazolecarboxamide] | – | chicks protected of the 5-bird treated group (Salmonella typhimurium): at least three chicks of the 5-bird treated group
6.25 µg/mL (≈ 23.8 µM) | 25 µg/mL (≈ 95 µM) | > 50 µg/mL | 12.5 µg/mL (≈ 47.5 µM) | 3.12 µg/mL (≈ 11.9 µM) | < 1.56 µg/mL | 25 µg/mL (≈ 95 µM) | NC(=O)c1cn(CCBr)nc1[N+](=O)[O-] [Compound 96, 1-(2-bromoethyl)-3-nitropyrazole-4-carboxamide] | 100% | –
50 µg/mL (≈ 184 µM) | 25 µg/mL (≈ 91.8 µM) | 50 µg/mL (≈ 184 µM) | 50 µg/mL (≈ 184 µM) | 50 µg/mL (≈ 184 µM) | 50 µg/mL (≈ 184 µM) | 50 µg/mL (≈ 184 µM) | CCOC(Cn1cc(C(N)=O)c([N+](=O)[O-])n1)OCC [Compound 82, 1-(2,2-diethoxyethyl)-3-nitro-4-pyrazolecarboxamide] | 80% | –
50 µg/mL (≈ 215 µM) | 6.25 µg/mL (≈ 26.9 µM) | > 50 µg/mL | 25 µg/mL (≈ 107 µM) | 12.5 µg/mL (≈ 53.7 µM) | 50 µg/mL (≈ 215 µM) | 25 µg/mL (≈ 107 µM) | NC(=O)c1cn(CCCCl)nc1[N+](=O)[O-] [Compound 63, 1-(3-chloropropyl)-3-nitro-4-pyrazolecarboxamide] | 40% | –
50 µg/mL (≈ 238 µM) | > 50 µg/mL | > 50 µg/mL | 25 µg/mL (≈ 119 µM) | 25 µg/mL (≈ 119 µM) | 12.5 µg/mL (≈ 59.5 µM) | 12.5 µg/mL (≈ 59.5 µM) | CC=CCn1cc(C(N)=O)c([N+](=O)[O-])n1 [Compound 75, 1-(2-butenyl)-3-nitro-4-pyrazolecarboxamide] | 60% | –
